According to patent publication USRE37556E1, “Superoxide radical inhibitor” (Otsuka Pharmaceutical Co., Ltd., priority 1990, dated 2002):
Where a name gives a salt, the structure may show the parent alone.

System: human neutrophilic leukocytes
Assay: Inhibition of superoxide radical (O2-) generation in FMLP-stimulated human neutrophilic leukocytes (ferricytochrome C method)
Format: cell-based
Excerpt: (1) Activity for inhibiting the generation of superoxide radical (O2^−) in human neutrophilic leukocytes
That is, a whole blood obtained from a healthy adult and treated by anticoagulation method was subjected to a dextranhypotonic treatment to obtain leukocyte cells. The leukocyte cells were then subjected to a density gradient ultracentrifugation by Ficoll-Paque to obtain a neutrophilic leukocyte fraction.
O2^− generation was examined by the ferricytochrome C method in accordance with the method of B. N. Cronstein et al. [Journal of Experimental Medicine, vol. […] Each test compound was dissolved in dimethyl sulfoxide (DMSO); the solution was added to neutrophilic leukocytes before the addition of FMLP; then, the neutrophilic leukocytes were pre-incubated at 37° C.

[1] = Homo sapiens, Leukocyte, pH 7.4, Table 15, O2- generation, 3x10^-7 M FMLP, cytochalasin B, 37° C., pH 7.4
[2] = Table 15, O2- generation, 3x10^-7 M FMLP, cytochalasin B, 37° C., pH 7.4
[3] = Homo sapiens, Leukocyte, Table 16, comparative test present compounds vs prior art compounds, NE = not effective

IC50 [1] [nM]	SMILES	further results
3	CCOc1ccc(-c2nc(-c3cc(O)cc(O)c3)cs2)cc1OCC [compound 61, 4-(3,5-Dihydroxyphenyl)-2-(3,4-diethoxyphenyl)-thiazole]	
80	CCOc1ccc(-c2nc(-c3cc(C)c(O)c(C(=O)O)c3)cs2)cc1OCC [compound 85, 4-(3-Carboxy-4-hydroxy-5-methylphenyl)-2-(3,4-diethoxyphenyl)thiazole]	
26	CCOc1ccc(-c2nc(-c3ccc(OCC(=O)OC)c(C(=O)OC)c3)cs2)cc1OCC [compound 81, 4-(4-Methoxycarbonylmethoxy-3-methoxycarbonylphenyl)-2-(3,4-diethoxyphenyl)thiazole]	
7	CCOc1ccc(-c2nc(-c3cc(N)c(O)c(C(=O)OC)c3)cs2)cc1OCC [compound 89, 4-(3-Amino-4-hydroxy-5-methoxycarbonylphenyl)-2-(3,4-diethoxyphenyl)thiazole]	
100	CCOc1ccc(C2(c3ccc(OCC)c(OCC)c3)NC(c3ccc(OC(C)=O)c(C(=O)O)c3)=CS2)cc1OCC [compound 97, 4-(3-Carboxy-4-acetyloxyphenyl)-2-(3,4-diethoxyphenyl)-2-(3,4-diethoxyphenyl)thiazole]	
100	CCCc1cc(C(=O)O)cc(-c2csc(-c3ccc(OCC)c(OCC)c3)n2)c1O [compound 114, 4-(2-Hydroxy-3-propyl-5-carboxyphenyl)-2-(3,4-diethoxy-phenyl)thiazole]	
240	CCOc1ccc(-c2nc(-c3cc(C(=O)O)c4oc(C)cc4c3)cs2)cc1OCC [compound 130, 2-(3,4-Diethoxyphenyl)-4-(2-methyl-7-carboxy-5-benzofuryl)thiazole]	
380	CCOc1ccc(-c2nc(-c3cccc(C(=O)N(C)C)n3)cs2)cc1OCC [compound 123, 2-(3,4-Diethoxyphenyl)-4-(2-dimethylaminocarbonyl-6-pyridyl)thiazole]	
200	CCOc1ccc(-c2nc(-c3ccc(N)cc3)cs2)cc1OCC [compound 72, 4-(4-Aminophenyl)-2-(3,4-diethoxyphenyl)thiazole hydrochloride]	
490	CCCCCCCCCOC(=O)c1cc(-c2csc(-c3ccc(OCC)c(OCC)c3)n2)ccc1O [compound 120, 2-(3,4-Diethoxyphenyl)-4-(4-hydroxy-3-n-nonyloxy-carbonylphenyl)thiazole]	
60	CCOc1ccc(-c2nc(-c3ccc(O)c(NC(C)=O)c3)cs2)cc1OCC [compound 65, 4-(3-Acetylamino-4-hydroxyphenyl)-2-(3,4-diethoxyphenyl)thiazole]	
1.3	CCOc1ccc(-c2nc(-c3cc(OC(C)=O)cc(OC(C)=O)c3)cs2)cc1OCC [compound 79, 4-(3,5-Diacetyloxyphenyl)-2-(3,4-diethoxyphenyl) thiazole]	
23	CCOc1ccc(-c2nc(-c3ccc(N)c(C(=O)O)c3)cs2)cc1OCC [compound 96, 4-(3-Carboxy-4-aminophenyl)-2-(3,4-diethoxyphenyl)-thiazole]	
80	CCOc1ccc(-c2nc(-c3cccc(C(=O)O)n3)cs2)cc1OCC [compound 115, 4-(6-Carboxy-2-pyridyl)-2-(3,4-diethoxyphenyl)-thiazole]	
200	COc1ccc(-c2nc(-c3cc(N)cc(N)c3)cs2)cc1OC [compound 71, 4-(3,5-Diaminophenyl)-2-(3,4-dimethoxyphenyl) thiazole dihydrochloride]	

The remaining lines, values behind:

SMILES	IC50 [1] [nM]	further results
CCCOc1ccc(-c2csc(-c3ccc(OCC)c(OCC)c3)n2)cc1C(=O)O [compound 138, 2-(3,4-Diethoxyphenyl)-4-(3-carboxy-4-n-propoxyphenyl)thiazole]	140	
CCOc1ccc(-c2nc(-c3cccc(C(=O)N4CCN(C)CC4)n3)cs2)cc1OCC [compound 128]		IC50 [2]: 580 nM
CCOc1ccc(-c2nc(-c3ccc(C(=N)N)cc3)cs2)cc1OCC [compound 69, 4-(4-Amidinophenyl)-2-(3,4-diethoxyphenyl)thiazole hydrochloride]	100	
CCOc1ccc(-c2nc(-c3cc(C(=O)O)ccc3OC)cs2)cc1OCC [compound 112, 4-(3-Carboxy-6-methoxyphenyl)-2-(3,4-diethoxyphenyl)thiazole, reference compound]		IC50 [3]: 8700 nM
CCOc1ccc(-c2nc(-c3cc(C(=O)O)cc(N)c3O)cs2)cc1OCC [compound 113, 4-(2-Hydroxy-3-amino-5-carboxyphenyl)-2-(3,4-diethoxy-phenyl)thiazole hydrochloride]	25	
CCOc1ccc(-c2nc(-c3cc(CC(C)C)c(O)c(C(=O)O)c3)cs2)cc1OCC [compound 93, 4-(3-Carboxy-4-hydroxy-5-isobutylphenyl)-2-(3,4-diethoxyphenyl)thiazole]	12	
CCCc1cc(-c2csc(-c3ccc(OCC)c(OCC)c3)n2)cc(C(=O)O)c1O [compound 90]		IC50 [2]: 8 nM
CCOc1ccc(-c2nc(-c3ccccc3)cs2)cc1OCC [compound 116, 2-(3,4-Diethoxyphenyl)-4-phenylthiazole]	370	
CCOc1ccc(-c2nc(-c3ccc(C(=O)O)cn3)cs2)cc1OCC [compound 143, 2-(3,4-Diethoxyphenyl)-4-(3-carboxy-6-pyridyl)-thiazole]	270	
CCOc1ccc(-c2nc(-c3cc4c(c(C(=O)O)c3)OC(C)(C)C4)cs2)cc1OCC [compound 139, 2-(3,4-Diethoxyphenyl)-4-(2,2-dimethyl-7-carboxy-2,3-dihydrobenzofuran-5-yl)thiazole]	100	
CCOc1ccc(-c2nc(-c3cc(C(=O)O)c(N)cc3O)cs2)cc1OCC [compound 95, 4-(3-Carboxy-4-amino-6-hydroxyphenyl)-2-(3,4-diethoxyphenyl)thiazole]	8.7	
CCOc1ccc(-c2nc(-c3ccc(O)c(C(=O)OCCN(C)C)c3)cs2)cc1OCC [compound 118, 2-(3,4-Diethoxyphenyl)-4-[4-hydroxy-3-(2-dimethylaminoethoxycarbonyl)phenyl]thiazole trihydrochloride]	560	
CCOc1ccc(-c2nc(-c3ccc(O)c(CC)c3)cs2)cc1OCC [compound 98, 4-(3-Ethyl-4-hydroxyphenyl)-2-(3,4-Diethoxyphenyl)thiazole]	83	
CCOc1cc(-c2nc(-c3cc(C(=O)O)ccc3O)cs2)ccc1OC [compound 104, 4-(3-Carboxy-6-hydroxyphenyl)-2-(3-ethoxy-4-methoxy-phenyl)thiazole]	34	IC50 [3]: 34 nM
CCOc1ccc(-c2nc(-c3cc(CC)c(O)c(C(=O)O)c3)cs2)cc1OCC [compound 126, 2-(3,4-Diethoxyphenyl)-4-(3-carboxy-4-hydroxy-5-ethylphenyl)thiazole]	14	
COc1ccc(-c2nc(-c3ccc(O)c(C(=O)O)c3)cs2)cc1OC [compound 105, 4-(3-Carboxy-4-hydroxyphenyl)-2-(3,4-dimethoxyphenyl)thiazole, reference compound]		IC50 [3]: 1000 nM
CCOc1ccc(-c2nc(-c3nc(C(=O)O)cs3)cs2)cc1OCC [compound 132, 2-(3,4-Diethoxyphenyl)-4-(4-carboxy-2-thiazolyl)-thiazole]	50	
COc1ccc(-c2nc(-c3ccc4[nH]c(=O)oc4c3)cs2)cc1OC [compound 55, 2-(3,4-Dimethoxyphenyl)-4-(2-oxobenzoxazol-6-yl)thiazole]	70	
